Data taken from PMC3586143 (Drugs in R&D, 2012).
Where two headings read alike, the source gives them in different places. Values belong to the compound of their own block, whether it stands above or below them.

Legend:
clinical = details: male, human, in vivo, po, 200 mg/day; for AUC: AUC24, gmean; for Cmax: gmean
[1] = in vivo; for tmax, median (range): 300 mg
[2] = tested on: vascular endothelial growth factor and epidermal growth factor; details: cellular assays for VEGF and EGF; cited from earlier work
healthy male subjects [3] = assay: Study A: safety and tolerability assessments; format: in vivo
healthy male subjects [4] = assay: Study B: safety and tolerability assessments; format: in vivo
[5] = for half-life: t½, gmean (CV%)
[6] = for increase in AUC504: vandetanib + itraconazole compared with vandetanib alone

Structure (SMILES): CC(O)C(C)n1ncn(-c2ccc(N3CCN(c4ccc(OCC5COC(Cn6cncn6)(c6ccc(Cl)cc6Cl)O5)cc4)CC3)cc2)c1=O (stereo not shown) [hydroxy-itraconazole]
AUC (clinical): 7690 ng·h/mL
Cmax (clinical): 413 ng/mL

Structure (SMILES): COc1cc2c(Nc3ccc(Br)cc3F)ncnc2cc1OCC1CCNCC1 [N-desmethylvandetanib]
AUC504 of metabolite as % of AUC504 of vandetanib [1]: ≈ 7%
tmax, median (range) [1]: 5 h

Structure (SMILES): CCC(C)n1ncn(-c2ccc(N3CCN(c4ccc(OCC5COC(Cn6cncn6)(c6ccc(Cl)cc6Cl)O5)cc4)CC3)cc2)c1=O (stereo not shown) [itraconazole, reference compound]
AUC (clinical): 5040 ng·h/mL
Cmax (clinical): 424 ng/mL

The next lines start with results.

increase in AUCct [1]: 126%
time post-dose by which plasma concentrations were nonquantifiable [1]: 96 to 240 h
tmax, median (range) [1]: 7 h
Structure (SMILES): COc1cc2c(Nc3ccc(Br)cc3F)ncnc2cc1OCC1CC[N+](C)([O-])CC1 (stereo not shown) [vandetanib N-oxide]
activity relative to vandetanib (fold less active) [2]: > 50 fold

median time to Cmax ([5]; both studies (A and B), vandetanib 300 mg single dose): 5 to 6 h
Tmax ([5]; male, human, plasma, oral, 300 mg): 6 h
half-life ([5]; male, human, plasma, oral, 300 mg, after vandetanib 300 mg alone): 218 h
half-life ([5]; male, human, plasma, oral, after vandetanib 300 mg + rifampicin): 116 h
Tmax ([6]; male, human, in vivo, 300 mg): 5 h
increase in AUC504 [6]: 9%
increase in AUC504 ([6]; listed as Vandetanib): about 9%
Structure (SMILES): COc1cc2c(Nc3ccc(Br)cc3F)ncnc2cc1OCC1CCN(C)CC1 [vandetanib]
tolerability (healthy male subjects [3]; single dose 300 mg): well tolerated
change in mean corrected QT (QTC) interval (healthy male subjects [3]; vandetanib alone or in combination with rifampicin): no clinically important changes
subjects with increase from baseline in QTC interval of >60 ms (healthy male subjects [3]; vandetanib in combination with rifampicin): One subject
subjects reporting adverse events (healthy male subjects [3]; vandetanib in the presence of rifampicin): 31.3%
subjects with increase from baseline in QTC of >60 ms (healthy male subjects [4]): Three subjects
increase in mean QTC interval after the dose (healthy male subjects [4]; at each timepoint): ≤ 20 ms
tolerability (healthy male subjects [4]; single dose 300 mg): well tolerated
subjects reporting adverse events (healthy male subjects [4]; vandetanib in the absence of itraconazole): 31.3%
